Test system: outer hair cells (OHC) and inner hair cells (IHC) of cochlear explants
Assay: Ototoxic hearing loss induction: cisplatin treatment of cochlear explants, hair cell viability by immunofluorescence
Type: cell-based, ICR mice
Details: cisplatin for 24 hours
Experimental: It is also known that damage to outer hair cells (OHC) and inner hair cells (IHC) of the cochlea leads to hearing loss.
After completion of the treatment, the cochlear explants were fixed with PBS containing 4% formalin for 15 minutes and washed with PBS three times. Next, after incubation with PBS containing 0.1% Triton X-100 for 10 minutes, blocking was performed with PBS containing 4% BSA for 30 minutes. Thereafter, incubation was performed for 1 hour with a rabbit anti-mouse myosin 7a primary antibody (1:400, abcam). After washing with PBS three times, incubation was performed for 1 hour with goat anti-rabbit IgG (H+L) Alexa Fluor 488 antibody (1:500, abcam) with Phalloidine Alexa Fluor 647 (1:1000, abcam). After washing with PBS, the coverslip was transferred to a slide and a drop of Fluoroshield with DAPI (Sigma, USA) was gently applied to the coverslip. The coverslip was sealed with clear nail polish and observed under a fluorescence microscope (FIG. 1B), and the number of OHCs and IHCs was measured to calculate the cell viability (FIG. 1C).

N.N.[Cl][Pt][Cl] [cisplatin] was tested, and the EC50 (apical turn) was 100 µM and the EC50 (middle turn and basal turn) was 80 µM.
